Measured values taken from paper PMC3214968 (Journal of medicinal chemistry, 2011).

Tests used:
matriptase activation [1] = target: T1, matriptase activation (Homo sapiens, UniProt Q9Y5Y6); assay: Acid-induced matriptase activation in HaCaT keratinocytes, immunoblot; type: cell-based; conditions: HaCaT cells, pH 6.0, dose-dependent
T1 sequence (Q9Y5Y6 1-855): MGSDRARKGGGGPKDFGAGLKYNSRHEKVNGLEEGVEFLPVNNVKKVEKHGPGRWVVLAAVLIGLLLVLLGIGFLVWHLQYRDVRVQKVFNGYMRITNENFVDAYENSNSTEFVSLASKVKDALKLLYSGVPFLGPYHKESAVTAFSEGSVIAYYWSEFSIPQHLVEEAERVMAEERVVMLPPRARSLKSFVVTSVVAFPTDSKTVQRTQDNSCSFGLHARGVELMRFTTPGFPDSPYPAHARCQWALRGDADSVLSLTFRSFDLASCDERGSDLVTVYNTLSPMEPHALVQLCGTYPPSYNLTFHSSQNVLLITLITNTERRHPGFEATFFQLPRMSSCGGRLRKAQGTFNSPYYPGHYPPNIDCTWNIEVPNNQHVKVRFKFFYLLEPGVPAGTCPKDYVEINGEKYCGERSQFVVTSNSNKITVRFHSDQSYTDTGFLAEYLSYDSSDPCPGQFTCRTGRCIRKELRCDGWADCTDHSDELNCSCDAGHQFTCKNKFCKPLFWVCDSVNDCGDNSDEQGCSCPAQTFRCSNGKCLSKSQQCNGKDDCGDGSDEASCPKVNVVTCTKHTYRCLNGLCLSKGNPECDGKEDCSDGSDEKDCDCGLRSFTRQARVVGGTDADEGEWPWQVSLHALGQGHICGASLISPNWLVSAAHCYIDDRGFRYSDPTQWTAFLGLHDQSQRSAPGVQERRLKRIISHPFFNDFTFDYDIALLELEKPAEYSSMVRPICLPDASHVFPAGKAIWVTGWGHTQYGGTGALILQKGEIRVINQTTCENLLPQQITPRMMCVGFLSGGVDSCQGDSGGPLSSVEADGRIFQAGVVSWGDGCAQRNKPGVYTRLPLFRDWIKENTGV

matriptase activation [2] = target: T1, matriptase activation; type: cell-based; conditions: 184 A1N4 intact cells; for Inhibition of matriptase activation by immunoblot, increasing concentrations: pH 6.0, mAb M24 and M69
matriptase activation [3] = target: T1, matriptase activation; assay: Cell-free in vitro matriptase activation assay; type: biochemical; conditions: insoluble fractions of 184 A1N4 cell homogenates, pH 6.0
prostasin activation = assay: Acid-induced prostasin activation in HaCaT keratinocytes, immunoblot; type: cell-based, human; conditions: HaCaT cells, pH 6.0, dose-dependent
[4] = target: T2, matriptase zymogen activation (Homo sapiens, UniProt Q9Y5Y6); assay: Cell-based, ELISA-like matriptase activation assay; conditions: 184 A1N4 cells, pH 6.0 buffer, 20 min, ELISA-like assay and immunoblot
T2 sequence (Q9Y5Y6 1-855): T1 sequence (Q9Y5Y6 1-855)

Compound	Inhibition of acid-induced activation of matriptase (matriptase activation [1])	120-kDa matriptase-HAI-1 complex (matriptase activation) by immunoblot (matriptase activation [2]; 5 μM compound, pH 6.0)	Inhibition of matriptase activation in the cell-free system (matriptase activation [3])	Inhibition of acid-induced activation of prostasin (prostasin activation)	Inhibition of matriptase activation by immunoblot, increasing concentrations (matriptase activation [2])	NaCl-mediated inhibition of acid-induced matriptase activation [4]
Cc1nc(N2C(=O)C(O)=C(C(=O)c3cccs3)C2c2cccs2)sc1C (centres unmarked) [compound 2, 1-(4,5-dimethylthiazol-2-yl)-3-hydroxy-5-(thiophen-2-yl)-4-(thiophene-2-carbonyl)-1H-pyrrol-2(5H)-one]	clearly inhibited	no detectable 120-kDa complex	suppress matriptase activation in a dose-dependent manner	clearly inhibited		
O=C(C1=C(O)C(=O)N(c2nccs2)C1c1cccs1)c1cccs1 (centres unmarked) [compound 1, 3-hydroxy-1-(thiazol-2-yl)-5-(thiophen-2-yl)-4-(thiophene-2-carbonyl)-1H-pyrrol-2(5H)-one]	same pattern of inhibition		suppress matriptase activation in a dose-dependent manner	same pattern of inhibition	same pattern of inhibition	
Cc1nc(N2C(=O)C(O)=C(C(=O)c3cccs3)C2c2ccccc2)sc1C (centres unmarked) [compound 3, 1-(4,5-dimethylthiazol-2-yl)-3-hydroxy-5-phenyl-4-(thiophene-2-carbonyl)-1H-pyrrol-2(5H)-one]	same pattern of inhibition		suppress matriptase activation in a dose-dependent manner	same pattern of inhibition	same pattern of inhibition	
Cc1nc(N2C(=O)C(O)=C(C(=O)c3ccccc3)C2c2cccs2)sc1C (centres unmarked) [compound 4, 4-benzoyl-1-(4,5-dimethylthiazol-2-yl)-3-hydroxy-5-(thiophen-2-yl)-1H-pyrrol-2(5H)-one]	same pattern of inhibition		suppress matriptase activation in a dose-dependent manner	same pattern of inhibition	same pattern of inhibition	
Sodium chloride [NaCl]						dose-dependent manner
